Entries after “also recorded” stand apart in the source; their conditions may differ. Ends that are not written are not given here.
How the values were obtained:
CAR T cells [1] = experiment: Target-independent AP1903-driven CAR T cell expansion, 2-week culture (Example 11); assay type: cell-based, human; settings: FKBP switch CAR T cells, IL7R(316-459)/IL12Rb2(775-825) cytotails; reference IL-7 and IL-12p70 10 ng/mL each; 2 weeks
Method: Control CAR T cells or FKBP switch CAR T cells bearing IL7R(316-459)/IL12Rb2(775-825) cytotails were cultured with the indicated concentrations of AP1903, and in the absence of exogenous cytokines (unless specified in the case of positive controls) or target cells for 2 weeks. As a positive control, CAR T cells were alternatively supplemented with exogenous recombinant IL-7 (10 ng/mL; Miltenyi) and IL-12p70 (10 ng/mL; Biolegend) to mimic the dual IL-7R/IL12Rb2 outputs transmitted by FKBP switch activation. At the end of the 2-week culture, the number and quality of surviving CAR T cells were determined. Briefly, duplicate samples from each culture condition cells were harvested and stained using the Zombie NIR Fixable Viability Kit (Biolegend). Samples were washed with PBS, Fc blocked, then stained with the following antibody cocktail diluted in PBS+1% BSA: BUV395-conjugated anti-human CD3, BV510-conjugated anti-human CD8, BV605-conjugated human CD4 and FITC-conjugated v5 tag (for CAR detection), PE/Cy7-conjugated anti-human CD62L (Biolegend) and BV785-conjugated anti-human CD45RO (Biolegend). Finally, samples were washed in PBS and cell pellets were resuspended in 130 uL PBS+1% BSA containing 123count eBeads counting beads (Thermo Fisher) (10 uL counting beads in 120 uL PBS+1% BSA) prior to FACS analysis.

[2] = biological target: FKBP12 containing the F36V mutation (Homo sapiens, UniProt P62942, F37V); settings: literature (Jemal 2008; Scher and Kelly 1993); cited from earlier work
CAR T cells [3] = experiment: Cytokine release (MSD assay) at the end of the 4-day cytotoxicity assay (Example 16B); assay type: cell-based
Method: (§1) To test whether different cytotail outputs influenced the effector function of CAR T cells, we performed a 4-day in vitro cytotoxicity assay. Briefly, 30,000 U87KO-EGFRvIII-nucRFP target cells were seeded and allowed to attach in 96-well plates with black walls and flat clear bottom in 50 uL RPMI containing 10% FBS (Hyclone), non-essential amino acids, sodium pyruvate and 20-25 mM HEPES. U87KO-EGFRvIII is a kind gift from Cellectis SA (Paris, France). U87KO-EGFRvIII was derived from the parental cell line, U87MG (ATCC), by first knocking out endogenous wildtype EGFR using Transcription Activator-Like Effector Nucleases (TALEN), and then stably overexpressing full-length human EGFRvIII via lentiviral transduction. To facilitate target cell imaging via the IncuCyte Live Cell Analysis Imaging System, U87KO-EGFRvIII-nucRFP target cells were derived from U87KO-EGFRvIII by a second lentiviral transduction with IncuCyte NucLight Red Lentivirus Reagent (Sartorius). EGFRvIII CAR (2173 scFv) T cells bearing an FKBP switch with the respective cytotails were thawed and added to plated target cells at an Effector:Target (E:T) ratio of 1:8. As a comparison, CAR T cells coexpressing FKBP-MyD88-CD40 were included. […] The number of live target cells at each timepoint was determined by enumerating the number of live nuclearRFP+ cells using the Incucyte Live Cell Analysis Imaging System. […]

[4] = test system: U87KO-EGFRvIII-nucRFP target cells; experiment: 4-day in vitro cytotoxicity assay against U87KO-EGFRvIII-nucRFP target cells (Example 16B); assay type: cell-based; settings: EGFRvIII CAR (2173 scFv); E:T 1:8; 500 ng/ml AP1903; 4 days; FIGS. 40A-40F
Method: as §1

CAR T cells [5] = experiment: Cytokine release (MSD assay) on Day 5 of the AP1903-driven growth assay (Example 16B); assay type: cell-based; settings: 500 ng/ml of AP1903; FIGS. 42A-42B
Method: To test whether different cytotail outputs influenced the memory differentiation and long-term survival of CAR T cells, we performed an AP1903-driven growth assay. CAR T cells bearing the indicated chimeric receptors were thawed and the percentages of CAR+ cells were normalized to the sample with the lowest transduction efficiency (i.e. 20% CAR+) by adding non-transduced T cells. Cells were either left untreated, or treated with 500 ng/ml of AP1903, and in the absence of exogenous cytokines (unless specified in the case of positive controls) or target cells for 2 weeks. […] On Day 5 of the AP1903-driven growth assay, supernatents were sampled for the analysis of cytokine release using the MSD assay (Meso Scale Discovery). At the end of the 2-week culture, the memory and exhaustion phenotypes of surviving CAR T cells were determined. Briefly, duplicate samples from each culture condition cells were harvested and stained using the Zombie NIR Fixable Viability Kit (Biolegend). […]

STAT4 = experiment: HEK293T transcription factor reporter assay of cytotails (Example 16A), Stat4; assay type: cell-based; settings: 1 ug/mL AP1903, 6 hours; FIG. 39B
Method: To test the signaling pathways activated by different cytotails, we utilized a HEK293T cell reporter assay. Briefly, 20,000 HEK293T cells were plated into each well of a poly-L-lysine-coated 96-well flat-bottom plate and allowed to adhere overnight. An inducible cytokine receptor (2.5 ng), the respective transcription factor response element that drives Firefly Luciferase (100 ng; Promega) and a Renilla Luciferase control reporter vector (1 ng; Promega) were mixed in a final volume of 5 uL in Opti-MEM (Gibco) (“DNA mix”). 0.3 uL Lipofectamine 2000 (Invitrogen) in 5 uL Opti-MEM was incubated at room temperature for 5 minutes and then added to the DNA mix. The mixture was incubated at room temperature for 20 minutes and the total volume of 10 uL was added to each well containing HEK-293T. As a negative control, the FKBP ectodomain was coupled to the transmembrane and short intracellular region of TpoR(478-528) that lacked the JAK-binding domain and cytotail (i.e. TpoR CTRL). As a comparison, the FKBP ectodomain was coupled to the MyD88/CD40 signaling domains (henceforth referred to as “FKBP-MyD88-CD40”). 24 hours after transfection, cells were either left untreated, or treated with 1 ug/mL AP1903 (Apex Bio) diluted in serum-free media. 6 hours after AP1903 treatment, reporter activity was determined using the Dual-Glo Luciferase Assay System (Promega). […]

[6] = biological target: T1, BCMA ectodomain cytokine receptor (Homo sapiens, UniProt Q02223); experiment: HEK293T Stat reporter assay of BCMA ectodomain cytokine receptor with soluble APRIL trimers (Example 14); assay type: cell-based; settings: 5 hours post-treatment; FIGS. 37C-37D
T1 construct: such as BCMA(1-54), TACI(1-165) and BAFFR(1-78); expressed in transfected cells; host or cells: HEK293T
T1 sequence (Q02223 1-54): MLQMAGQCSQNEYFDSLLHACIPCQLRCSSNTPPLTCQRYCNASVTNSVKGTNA
Description: To test if the panel of ligand inducers and ectodomains can be further extended beyond the AP1903-FKBP(F36V) pairing, we tested signaling in response to other multimeric ligand inducers. As the Tumor Necrosis Family (TNF) superfamily of ligands are trimers, they engage their respective receptors in a multimeric fashion. Therefore, we fused ectodomains derived from the TNFR2 superfamily receptors, such as BCMA(1-54), TACI(1-165) and BAFFR(1-78), to the transmembrane and signaling domains of our chimeric cytokine receptors, and tested signaling in response to soluble trimeric ligand. Briefly, 20,000 HEK293T cells were plated into each well of a poly-L-lysine-coated 96-well flat-bottom plate and allowed to adhere overnight. The chimeric cytokine receptor (2.5 ng), a Stat response element that drives Firefly Luciferase (100 ng; Promega) and Renilla Luciferase control reporter vector (1 ng; Promega) were mixed in a final volume of 5 uL in Opti-MEM (Gibco) (“DNA mix”). 0.3 uL Lipofectamine 2000 (Invitrogen) in 5 uL Opti-MEM was incubated at room temperature for 5 minutes and then added to the DNA mix. […] 24 hours after transfection, cells were either left untreated, or treated with soluble BAFF or APRIL trimers diluted in serum-free media, and Stat reporter activity was determined 5 hours post-treatment using the Dual-Glo Luciferase Assay System (Promega). […]

CAR T cells [7] = experiment: AP1903-driven growth assay: enrichment, memory and exhaustion phenotype of CAR T cells (Example 16B); assay type: cell-based; settings: 2 weeks; exogenous recombinant cytokine 10 ng/mL; 20% CAR+ seeded; FIG. 43
Method: To test whether different cytotail outputs influenced the memory differentiation and long-term survival of CAR T cells, we performed an AP1903-driven growth assay. CAR T cells bearing the indicated chimeric receptors were thawed and the percentages of CAR+ cells were normalized to the sample with the lowest transduction efficiency (i.e. 20% CAR+) by adding non-transduced T cells. Cells were either left untreated, or treated with 500 ng/ml of AP1903, and in the absence of exogenous cytokines (unless specified in the case of positive controls) or target cells for 2 weeks. As positive controls, CAR T cells were alternatively supplemented with either exogenous recombinant IL-7 or IL-2 (10 ng/mL each; Miltenyi). […] At the end of the 2-week culture, the memory and exhaustion phenotypes of surviving CAR T cells were determined. Briefly, duplicate samples from each culture condition cells were harvested and stained using the Zombie NIR Fixable Viability Kit (Biolegend). […]

Sequence of FKBP12 containing the F36V mutation (P62942 2-108 F37V): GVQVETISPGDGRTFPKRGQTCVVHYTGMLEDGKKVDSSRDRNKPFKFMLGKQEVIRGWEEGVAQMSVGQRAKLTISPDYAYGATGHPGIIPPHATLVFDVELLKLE

CC[C@H](C(=O)N1CCCC[C@H]1C(=O)O[C@H](CCc1ccc(OC)c(OC)c1)c1cccc(OCC(=O)NCCNC(=O)COc2cccc([C@@H](CCc3ccc(OC)c(OC)c3)OC(=O)[C@@H]3CCCCN3C(=O)[C@@H](CC)c3cc(OC)c(OC)c(OC)c3)c2)c1)c1cc(OC)c(OC)c(OC)c1 [AP1903]
AP1903 concentration sufficient to reach the level of expansion achieved by exogenous cytokine supplementation (CAR T cells [1]): ≤ 1 ng/mL
binding affinity to FKBP12 containing the F36V mutation [2]: high affinity; also recorded: much higher affinity than wild-type FKBP12

IL12Rb2small(775-825): FKBP switch (Example 16) bearing the IL12Rb2small(775-825) cytotail (SDPKPENPACPWTVLPAGDLPTHDGYLPSNIDDLPSHEAPLADSLEELEPQ; also: FKBP switch fusion; UniProt Q99665 775-825, looked up, fragment)
IL-10 secretion (CAR T cells [3]; AP1903, FIG. 41A): increased IL-10 secretion
pro-inflammatory cytokine release in the presence of AP1903 (CAR T cells [3]; IL-17A/F, IL-21, TNFa and IFNg, FIG. 41A): released elevated amounts of pro-inflammatory cytokines
CAR T cell cytotoxicity in the presence of AP1903 [4]: enhances CART cell cytotoxic potency
cytokine release on Day 5 of AP1903-driven growth (CAR T cells [5]): secrete elevated amounts of pro-inflammatory cytokines
Stat4 reporter activation (STAT4): activating Stat4

APRIL: soluble APRIL trimers, TNF superfamily ligand
downstream Stat activation [6]: induced downstream Stat activation

B1: IL-7: exogenous recombinant IL-7 (Miltenyi), positive control (protein, UniProt P13232 26-177, looked up)
Interleukin-7: DCDIEGKDGKQYESVLMVSIDQLLDSMKEIGSNCLNNEFNFFKRHICDANKEGMFLFRAARKLRQFLKMNSTGDFDLHLLKVSEGTTILLNCTGQVKGRKPAALGEAQPTKSLEENKSLKEQKKLNDLCFLKRLLQEIKTCWNKILMGTKEH
percentage of CAR+ cells (CAR T cells [7]): ~20%
